In ChEMBL document CHEMBL1201862, “PubChem BioAssay data set” (2004):
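Cultured in 96-well plates, cells were exposed to test compound for 48 hours across five concentrations. Abbreviation: GI50, concentration required for 50% inhibition of growth.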 Activity calls are given as the source filed them. Cut-off read from the data, not from the text of the source: active = GI50 up to about 1.1 µM and inactive = higher.

What was measured:
Experiment in all cases: inhibition of tumour cell growth, NCI panel, 48 h
[1] = tested on: HCC 2998
[2] = tested on: SW-620
[3] = tested on: BT-549
[4] = tested on: RPMI-8226
[5] = tested on: MDA-MB-435
[6] = tested on: EKVX
[7] = tested on: 786-0
[8] = tested on: HCT-116
[9] = tested on: SK-MEL-2
[10] = tested on: HT-29
[11] = tested on: MDA-N
[12] = tested on: LOX IMVI
[13] = tested on: NCI-H23
[14] = tested on: SK-MEL-5
[15] = tested on: A498
[16] = tested on: TK-10
[17] = tested on: HOP-92
[18] = tested on: MDA-MB-231
[19] = tested on: A549
[20] = tested on: Hs-578T

Compound	GI50 [1]	GI50 [2]	GI50 [3]	GI50 [4]	GI50 [5]	GI50 [6]	GI50 [7]	GI50 [8]	GI50 [9]	GI50 [10]	GI50 [11]	GI50 [12]	GI50 [13]	GI50 [14]	GI50 [15]	GI50 [16]	GI50 [17]	GI50 [18]	GI50 [19]	GI50 [20]
N=c1c2c(-c3ccccc3)c[nH]c2ncn1N	> 100 µM (inactive)	> 100 µM (inactive)	> 100 µM (inactive)	> 100 µM (inactive)	> 100 µM (inactive)	> 100 µM (inactive)	> 100 µM (inactive)	> 100 µM (inactive)	> 100 µM (inactive)	> 100 µM (inactive)	> 100 µM (inactive)	> 100 µM (inactive)	> 100 µM (inactive)	> 100 µM (inactive)	> 100 µM (inactive)	> 100 µM (inactive)	> 100 µM (inactive)	> 100 µM (inactive)	> 100 µM (inactive)	–
COc1ccc2nc3cc(Cl)ccc3c(NCCCNCCCNc3c4ccc(Cl)cc4nc4ccc(OC)cc34)c2c1	0.0178 µM (active)	0.0131 µM (active)	0.21 µM (active)	0.0826 µM (active)	0.0374 µM (active)	0.137 µM (active)	< 0.01 µM (active)	< 0.01 µM (active)	0.0404 µM (active)	< 0.01 µM (active)	< 0.01 µM (active)	< 0.01 µM (active)	0.0181 µM (active)	0.0247 µM (active)	0.0541 µM (active)	0.0741 µM (active)	0.0719 µM (active)	< 0.01 µM (active)	0.0132 µM (active)	–
C[C@]12CC[C@@H]3c4ccc(O)cc4CC[C@H]3[C@@H]1C/C(=C\c1ccc(C#N)cc1)C2=O	37.3 µM (inactive)	24.5 µM (inactive)	48.2 µM (inactive)	13.3 µM (inactive)	19.4 µM (inactive)	34.8 µM (inactive)	35.7 µM (inactive)	32.9 µM (inactive)	28.8 µM (inactive)	24.9 µM (inactive)	25 µM (inactive)	40.8 µM (inactive)	38.2 µM (inactive)	19.2 µM (inactive)	> 100 µM (inactive)	34.1 µM (inactive)	26.8 µM (inactive)	23.3 µM (inactive)	30.8 µM (inactive)	–
CCc1nc(Cl)c(Cl)c(Cl)n1	> 100 µM (inactive)	> 100 µM (inactive)	> 100 µM (inactive)	> 100 µM (inactive)	> 100 µM (inactive)	> 100 µM (inactive)	> 100 µM (inactive)	–	> 100 µM (inactive)	> 100 µM (inactive)	–	> 100 µM (inactive)	> 100 µM (inactive)	> 100 µM (inactive)	–	> 100 µM (inactive)	–	–	> 100 µM (inactive)	> 100 µM (inactive)
COC(=O)c1cc2ccc(O)c(O)c2cn1	> 10 µM (inactive)	16.6 µM (inactive)	> 10 µM (inactive)	17.1 µM (inactive)	1.73 µM (inactive)	21.4 µM (inactive)	2.7 µM (inactive)	15.7 µM (inactive)	18.1 µM (inactive)	> 10 µM (inactive)	1.52 µM (inactive)	1.96 µM (inactive)	15.7 µM (inactive)	14.2 µM (inactive)	> 10 µM (inactive)	20 µM (inactive)	12.6 µM (inactive)	10.9 µM (inactive)	23.6 µM (inactive)	–
CCCc1cn2c(/C=N/NC(=N)N)c(-c3cccc([N+](=O)[O-])c3)nc2s1	–	3.08 µM (inactive)	1.57 µM (inactive)	1.8 µM (inactive)	1.76 µM (inactive)	–	1.95 µM (inactive)	2.27 µM (inactive)	2.1 µM (inactive)	2.06 µM (inactive)	–	2.07 µM (inactive)	1.78 µM (inactive)	1.98 µM (inactive)	17.3 µM (inactive)	0.0405 µM (active)	11.1 µM (inactive)	1.47 µM (inactive)	1.73 µM (inactive)	2.68 µM (inactive)
